Laboratory results published in ChEMBL document CHEMBL1201862, “PubChem BioAssay data set” (2004).
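Cultured in 96-well plates, cells were exposed to test compound for 48 hours across five concentrations. Here, GI50 denotes the concentration required for 50% inhibition of growth.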 The source made the active and inactive calls. Rule as the data show it: active = GI50 up to about 1.1 µM and inactive = higher.

What was measured:
Experiment in all cases: DTP human tumour cell line panel, 48 h
[1] = tested on: LOX IMVI
[2] = tested on: IGROV-1
[3] = tested on: K562
[4] = tested on: CAKI-1
[5] = tested on: COLO 205
[6] = tested on: SR
[7] = tested on: MCF7
[8] = tested on: U-251
[9] = tested on: DU-145
[10] = tested on: RXF 393
[11] = tested on: NCI/ADR-RES
[12] = tested on: M14
[13] = tested on: SK-MEL-28
[14] = tested on: SNB-75
[15] = tested on: SNB-19
[16] = tested on: NCI-H522
[17] = tested on: OVCAR-4
[18] = tested on: A498
[19] = tested on: MDA-N

Measured: GI50

O=C(CSc1nccc(=O)[nH]1)c1ccccc1
inactive: [1] 78.3 µM | [2] > 100 µM | [3] > 100 µM | [4] > 100 µM | [5] > 100 µM | [6] > 100 µM | [7] 91 µM | [8] > 100 µM | [9] > 100 µM | [10] > 100 µM | [11] 37.2 µM | [12] > 100 µM | [13] > 100 µM | [14] > 100 µM | [15] > 100 µM | [16] > 100 µM | [17] > 100 µM

OC(c1ccc(C(F)(F)F)cc1)C(F)(F)c1nc2ccccc2o1 (stereo not given)
inactive: [1] > 100 µM | [2] > 100 µM | [3] 56.8 µM | [4] > 100 µM | [5] > 100 µM | [6] > 100 µM | [7] > 100 µM | [8] > 100 µM | [9] > 100 µM | [10] > 100 µM | [11] > 100 µM | [12] > 100 µM | [13] > 100 µM | [14] > 100 µM | [15] > 100 µM | [17] > 100 µM

O=C(O)c1ccccc1/C=C1\Cc2ccc3c(c2C1=O)CCCC3
inactive: [1] 40 µM | [2] 31 µM | [3] 38 µM | [5] 34.4 µM | [6] 26.8 µM | [7] 48.3 µM | [8] 44.7 µM | [9] 41.4 µM | [10] 30.5 µM | [11] 32.1 µM | [18] 30.8 µM | [12] 28.9 µM | [13] 39.2 µM | [14] 27 µM | [15] 39.4 µM | [16] 25.2 µM | [17] 41.6 µM

CC(=O)Oc1cc2c(n(C)c1=O)CCC2
inactive: [1] 96.4 µM | [2] > 100 µM | [3] > 100 µM | [4] > 100 µM | [5] > 100 µM | [7] > 100 µM | [8] > 100 µM | [9] > 100 µM | [11] 35.5 µM | [18] > 100 µM | [12] > 100 µM | [13] > 100 µM | [14] > 100 µM | [15] > 100 µM | [16] > 10 µM | [17] > 100 µM

CC(=O)CC1=C(OC(C)C)C2(OCCO2)C1O (stereo not given)
inactive: [1] > 100 µM | [19] > 100 µM | [2] > 100 µM | [4] > 100 µM | [5] > 100 µM | [7] > 100 µM | [8] > 100 µM | [9] > 100 µM | [10] > 100 µM | [18] > 100 µM | [12] > 100 µM | [13] > 100 µM | [14] > 100 µM | [15] > 100 µM | [16] > 100 µM | [17] > 100 µM

C[N+](C)([O-])Cc1cc(-c2ccccc2)ccc1O
inactive: [1] > 100 µM | [2] > 100 µM | [3] > 100 µM | [4] > 100 µM | [6] 49.1 µM | [8] > 100 µM | [9] > 100 µM | [10] > 100 µM | [11] > 100 µM | [18] > 100 µM | [12] > 100 µM | [13] > 100 µM | [14] > 100 µM | [15] > 100 µM | [16] > 100 µM | [17] > 100 µM

c1ccc(/N=C2\c3ccccc3CN2c2ccccn2)nc1
inactive: [1] 96.2 µM | [19] > 100 µM | [2] > 100 µM | [3] 65 µM | [4] > 100 µM | [5] 58.6 µM | [7] 49.9 µM | [8] > 100 µM | [9] > 100 µM | [10] > 100 µM | [18] > 100 µM | [12] > 100 µM | [13] > 100 µM | [14] 94.8 µM | [15] > 100 µM | [16] 61.7 µM | [17] > 100 µM

CCOc1cc2ccc3c4cc(OC)c(OC)cc4cnc3c2cc1OCC
inactive: [2] > 100 µM | [3] > 100 µM | [4] > 100 µM | [5] > 100 µM | [8] > 100 µM | [18] > 100 µM | [12] > 100 µM | [13] > 100 µM | [14] > 100 µM | [15] > 100 µM | [16] > 100 µM | [17] > 100 µM

Nc1ccc(C(=O)CC2(O)C(=O)Nc3c(Cl)cc(Cl)cc32)cc1 (stereo not given)
inactive: [1] 34.5 µM | [3] 40.1 µM | [5] > 100 µM | [8] 27.2 µM | [10] > 100 µM | [18] > 100 µM | [12] > 100 µM | [13] > 100 µM | [14] 58.1 µM | [15] > 100 µM | [16] 42.5 µM | [17] > 100 µM

COC(=O)/C=C/C(=O)C1C(C(=O)OC)C2(C(=O)OC)CCC1(C(=O)OC)N2 (stereo not given)
inactive: [2] > 100 µM | [3] > 100 µM | [4] > 100 µM | [5] > 100 µM | [6] > 100 µM | [8] > 100 µM | [10] > 100 µM | [12] > 100 µM | [13] > 100 µM | [15] > 100 µM | [17] > 100 µM
